From patent US11702417B2, “Compounds for improving mRNA splicing” (The General Hospital Corporation, priority 2015, dated 2023) come the findings set out here.

Where two headings read alike, the source gives them in different places.

In the assay the test system is FD (familial dysautomonia) IKBKAP minigene, exon 20 inclusion, in HEK293T cells. As to the kind of experiment: Primary splicing assay (FD IKBKAP minigene, Firefly/Renilla luciferase reporter in HEK293T). The assay is classed as cell-based, human. Conditions: for Emax / EC (maximum kinetin efficacy): Homo sapiens, HEK-293T; for EC (maximum kinetin efficacy): HEK293T, read-out: ECk (compound concentration at which the maximum kinetin efficacy (200 μM) is reached). (A reporter such as luciferase makes a cellular process visible.)

Setting [1] is: max efficacy in Primary Assay, Firefly/Renilla ratio, kinetin and DMSO as positive and negative controls, 24 hours of treatment, read-out: Emax (%).
[2] abbreviates: Firefly/Renilla ratio, 24 hours of treatment.
Where [3] appears, read: max efficacy, value marked (RT-PCR), footnote a: Firefly inhibitor, read-out: Emax (%) (RT-PCR).

As a reminder, the Emax is the greatest response seen or fitted, relative to the assay's reference. Regarding `CN(Cc1ccncc1)c1nc(Cl)nc2[nH]ccc12` [(369)], under setting [1], the Emax was determined as 57.8%. Take `FCCn1ccc2c(NCc3ccncc3)nc(Cl)nc21` [(194)]: under setting [2], the EC (maximum kinetin efficacy) turned out to be 4.49 µM. Also, the Emax under setting [1] is 241%. Turning to `c1coc(CNc2ncnc3[nH]ccc23)c1` [(3)], the Emax under setting [1] amounted to 59%. `Cc1cccc(Nc2ncnc3[nH]cnc23)c1` [(37)]: the EC (maximum kinetin efficacy) under setting [2] came out at 36.5 µM.

For `Clc1nc(NCc2ccco2)c2ccn(C3CCOCC3)c2n1` [(182)], the Emax under setting [1] was 20%.

Consider `CC(Nc1nc(Cl)nc2[nH]ccc12)c1nccs1` (centres unmarked) [(364)], for which the Emax under setting [1] came to 18.2%. With `Clc1nc(NCc2nccs2)c2nc(OCc3ccccn3)[nH]c2n1` [(500)], under setting [2], the EC (maximum kinetin efficacy) is 3 µM. For the same compound, the Emax under setting [1] was found to be 141%. For the compound `Fc1c[nH]c2nc(Cl)nc(NCc3ccncc3)c12` [(114)], under “max efficacy, Firefly only, footnote c: Renilla interference/Firefly only, read-out: Emax (%) Firefly only”, the Emax amounted to 174%. For the same compound, the “ECk, Firefly only” value (Renilla interference/Firefly only (footnote c)) worked out at 6.59 µM⁻¹. For `OCCOc1nc2c(NCc3nccs3)nc(Cl)nc2[nH]1` [(310)], the EC (maximum kinetin efficacy) under setting [2] amounted to 1.5 µM. Also, under setting [1], the Emax is 191%.

For the compound `CNCc1c[nH]c2nc(Cl)nc(NCc3ccco3)c12` [(177)], under setting [1], the Emax came to 60%. Consider `Clc1nc(NCc2ccco2)c2c(Cl)c[nH]c2n1` [(205)], for which the EC (maximum kinetin efficacy) under setting [2] was 6.41 µM. In addition, the Emax under setting [1] worked out at 27%. As to `c1ccc(-c2nc(NCc3ccco3)c3nc[nH]c3n2)cc1` [(38)], under setting [1], the Emax amounted to 5%. For `O[C@H]1C=C[C@H](n2ccc3c(NCc4ccco4)nc(Cl)nc32)C1` [(132)], under setting [3], the Emax is 67.7%. `Fc1cnccc1CNc1nc(Cl)nc2[nH]cnc12` [(227)]: the EC (maximum kinetin efficacy) under setting [2] turned out to be 23.3 µM. Further, under setting [1], the Emax came to 163%. Taken in the same sequence, the figures for `COc1nc2c(NCc3ccncn3)nc(Cl)nc2[nH]1` [(261)] were 2.62 µM and 143%. In the same order, the values of `N#CCc1nc2c(NCc3ccco3)nc(Cl)nc2[nH]1` [(224)] are 9.49 µM and 139%.

Regarding `CCCOc1nc2c(NCc3nccs3)nc(Cl)nc2n1CCO` [(312)], under setting [2], the EC (maximum kinetin efficacy) is 2.29 µM. For the same compound, under setting [1], the maximal response (Emax) was found to be 195%. In the case of `Clc1nc(NCc2ccnnc2)c2cc[nH]c2n1` [(176)], the Emax under setting [1] is 48%.

Turning to `Clc1nc(NCc2ccco2)c2nc(OCC3CCCC3)[nH]c2n1` [(338)], the EC (maximum kinetin efficacy) under setting [2] is 1.1 µM. Moreover, the Emax under setting [1] worked out at 222%. As to `c1cc(CNc2ncnc3[nH]cnc23)ccn1` [(404)], under setting [1], the Emax came to 51%. Still for that read-out and setting: the value for `Clc1nc(NCc2nccs2)c2nc(OCCOc3ccccc3)[nH]c2n1` [(401)] was 41.2%. Regarding `Clc1nc(NCc2ccncn2)c2nc(OC3COC3)[nH]c2n1` [(267)], the EC (maximum kinetin efficacy) under setting [2] is 2.4 µM. Moreover, under setting [1], the Emax was 183%.

Consider `CC(=O)NCCOc1nc2c(NCc3nccs3)nc(Cl)nc2[nH]1` [(397)], for which the Emax under setting [1] stood at 26.3%.

`Clc1nc(NCc2ccco2)c2nc(OCC#Cc3ccccc3)[nH]c2n1` [(474)]: under setting [1], the Emax stood at 24.9%. Turning to `OCCCOc1nc2c(NCc3nccs3)nc(Cl)nc2[nH]1` [(276)], the EC (maximum kinetin efficacy) under setting [2] is 1.13 µM. In addition, under setting [1], the Emax stood at 188%. Turning to `Clc1nc(NCc2ccnc3ccccc23)c2nc[nH]c2n1` [(185)], the Emax under setting [1] stood at 22%. On the same count and under the same terms, the value for `O=C(c1cc2c(NCc3ccco3)nc(Cl)nc2[nH]1)N1CCCC1` [(190)] was 68%. As to `OCCn1cc(Cl)c2c(NCc3ccco3)nc(Cl)nc21` [(211)], the EC (maximum kinetin efficacy) under setting [2] came to 7.73 µM. In addition, the Emax under setting [1] is 204%.

On to `CN(C)c1nc(NCc2ccco2)c2nc[nH]c2n1` [(60)], for which the maximal effect (Emax) under setting [1] is 13%. `FCCn1cc(Cl)c2c(NCc3ccco3)nc(Cl)nc21` [(212)]: the Emax under setting [1] is 71%. The same measure, in the same setting: the value for `CC(C)(COc1nc2c(NCc3nccs3)nc(Cl)nc2[nH]1)OCc1ccccc1` [(400)] was 11.4%. Regarding `COCCn1ccc2c(NCc3ccco3)nc(Cl)nc21` [(94)], the Emax under setting [3] was 180%. The “ECk (RT-PCR)” value (determined by RT-PCR, footnote a Firefly inhibitor, footnote b Renilla interference) fell in the range of 10 to 31.6 µM. Regarding `Clc1nc(NCc2ccncn2)c2nc(OCc3nccs3)[nH]c2n1` [(340)], the EC (maximum kinetin efficacy) under setting [2] came out at 0.95 µM. Besides, the Emax under setting [1] came out at 220%. As to `O=c1[nH]c2c(NCc3nccs3)nc(Cl)nc2n1C1CCCCO1` (centres unmarked) [(344)], under setting [1], the Emax turned out to be 18.4%. With `Clc1nc(NCc2nccs2)c2nc(OCc3cccnc3)[nH]c2n1` [(506)], the EC (maximum kinetin efficacy) under setting [2] was 1.14 µM. Besides, under setting [1], the Emax was found to be 144%. Turning to `Cc1ccccc1CNc1ncnc2[nH]cnc12` [(14)], the Emax under setting [1] stood at 53%.

Consider `OCCCOc1nc2c(NCc3ccco3)nc(Cl)nc2[nH]1` [(249)], for which the EC (maximum kinetin efficacy) under setting [2] stood at 0.72 µM. For the same compound, the Emax under setting [1] was found to be 256%. Take `FCCn1ncc2c(NCc3ccco3)nc(Cl)nc21` [(214)]: the EC (maximum kinetin efficacy) under setting [2] was found to be 11.2 µM. For the same compound, under setting [1], the Emax is 197%.

As for `Clc1nc(NCc2ccco2)c2c(-c3ccccc3)c[nH]c2n1` [(86)], under setting [1], the Emax was 29%. The same measure, in the same setting: the value for `Clc1nc2c(c(NCc3nccs3)n1)COC2` [(502)] was 28%. Take `CC#CCOc1nc2c(NCc3nccs3)nc(Cl)nc2[nH]1` [(479)]: the EC (maximum kinetin efficacy) under setting [2] came out at 3.23 µM. In addition, the Emax under setting [1] worked out at 144%. Consider `Cc1cccc(CNc2ncnc3[nH]cnc23)c1` [(1)], for which the Emax under setting [1] was found to be 19%. In the case of `Clc1nc(NCc2nccs2)c2nc(C3CCC3)[nH]c2n1` [(240)], the EC (maximum kinetin efficacy) under setting [2] amounted to 18.2 µM. Also, the Emax under setting [1] was 124%. Taken in the same sequence, the figures for `FC(F)(F)CCOc1nc2c(NCc3cscn3)nc(Cl)nc2[nH]1` [(499)] were 1.67 µM and 156%.

As for `COc1nc2c(NCc3nccs3)nc(C#N)nc2[nH]1` [(385)], under setting [1], the Emax was 46%. In the case of `Clc1nc(NCc2ccncn2)c2nc(OC3CCC3)[nH]c2n1` [(321)], the EC (maximum kinetin efficacy) under setting [2] worked out at 1.41 µM. Moreover, the Emax under setting [1] is 197%.

Take `Clc1cc(NCc2ccco2)n2ncnc2n1` [(284)]: the Emax under setting [1] was 27%. Still for that read-out and setting: the value for `Clc1nc(NCc2nncs2)c2cc[nH]c2n1` [(501)] was 18.1%. Take `CC(C)COc1nc2c(NCc3nccs3)nc(Cl)nc2[nH]1` [(491)]: the EC (maximum kinetin efficacy) under setting [2] came out at 0.48 µM. Moreover, the Emax under setting [1] was found to be 155%.

For `Clc1nc(NCc2ccco2)c2nc(OCCOc3ccccc3)[nH]c2n1` [(481)], the EC (maximum kinetin efficacy) under setting [2] is 4.14 µM. Under setting [1], the Emax amounted to 93.4%. With `c1coc(CNc2nc(C3CC3)nc3[nH]cnc23)c1` [(65)], the Emax under setting [1] amounted to 32%. For `Cc1cc2c(NCc3ccncc3)nc(Cl)nc2[nH]1` [(119)], under setting [2], the EC (maximum kinetin efficacy) is 11.2 µM. Under setting [1], the Emax was 114%. In the same order, the values of `Clc1nc(NCc2nccs2)c2nc(OCc3ccncc3)[nH]c2n1` [(507)] are 0.77 µM and 167%. Regarding `Fc1ccc(Nc2ncnc3[nH]cnc23)cc1` [(34)], the EC (maximum kinetin efficacy) under setting [2] amounted to 26.6 µM. Consider `CNCc1cc2c(NCc3ccco3)nc(Cl)nc2[nH]1` [(181)], for which the EC (maximum kinetin efficacy) under setting [2] is 8.4 µM. Also, the Emax under setting [1] was found to be 122%. Consider `Clc1nc(NCc2ccccn2)c2nc[nH]c2n1` [(356)], for which, under setting [1], the Emax was 17%. With `Cc1cn(CCO)c2nc(Cl)nc(NCc3ccncc3)c12` [(121)], the EC (maximum kinetin efficacy) under setting [2] came out at 17.3 µM. Besides, under setting [1], the Emax is 189%.

Turning to `Clc1cc(NCc2ccco2)n2nccc2n1` [(322)], under setting [1], the Emax was found to be 21%.
